Several values for one entry are separate records, joined by “and”; a condition that tells them apart may be missing. Equal entries are not always repeated. Inconclusive results and toxic doses are left out. Rule as the data show it: active = T/C of 150% or more; inactive = T/C below 125%.
System: L1210 leukemia ip in BDF1 mice, survival T/C
Assay: NCI In Vivo Anticancer Drug Screen. Data for tumor model L1210 Leukemia (intraperitoneal) in B6D2F1 (BDF1) mice
Conditions: endpoint: mean survival time, higher = longer survival
In short: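 Tumor cells were implanted, animals were treated, and survival was followed. The result divides the treated measurement by the vehicle-control measurement.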

[1] = dose: 100.0 mg/kg/injection, schedule: Q01DX001 (ip), vehicle: carboxymethylcellulose (CMC)
[2] = dose: 200.0 mg/kg/injection, schedule: Q01DX001 (ip), vehicle: carboxymethylcellulose (CMC)
[3] = dose: 400.0 mg/kg/injection, schedule: Q01DX001 (ip), vehicle: carboxymethylcellulose (CMC)
[4] = dose: 100.0 mg/kg/injection, schedule: Q01DX009 (ip), vehicle: saline
[5] = dose: 200.0 mg/kg/injection, schedule: Q01DX009 (ip), vehicle: saline
[6] = dose: 400.0 mg/kg/injection, schedule: Q01DX009 (ip), vehicle: saline
[7] = dose: 100.0 mg/kg/injection, schedule: Q01DX009 (ip), vehicle: saline with Tween-80
[8] = dose: 200.0 mg/kg/injection, schedule: Q01DX009 (ip), vehicle: saline with Tween-80

Measured: T/C

CC(C)(C)NC(=O)NCc1cccnc1
inactive: dose: 100.0 mg/kg/injection, schedule: Q01DX009 (ip), vehicle: saline sonified 97 % of control | dose: 100.0 mg/kg/injection, schedule: Q04DX003 (ip), vehicle: saline sonified 100 % of control | dose: 200.0 mg/kg/injection, schedule: Q01DX009 (ip), vehicle: saline sonified 100 % of control | dose: 200.0 mg/kg/injection, schedule: Q04DX003 (ip), vehicle: saline sonified 87 % of control | dose: 400.0 mg/kg/injection, schedule: Q01DX009 (ip), vehicle: saline sonified 105 % of control | dose: 400.0 mg/kg/injection, schedule: Q04DX003 (ip), vehicle: saline sonified 94 % of control

COc1cc(NC(=O)Nc2ccc(Cl)c(C(F)(F)F)c2)ccc1NC(C)=O
inactive: dose: 50.0 mg/kg/injection, schedule: Q01DX009 (ip), vehicle: carboxymethylcellulose (CMC) 96 % of control and 103 % of control | [1] 103 % of control and 105 % of control | dose: 100.0 mg/kg/injection, schedule: Q04DX002 (ip), vehicle: carboxymethylcellulose (CMC) 94 % of control | dose: 100.0 mg/kg/injection, schedule: Q04DX003 (ip), vehicle: carboxymethylcellulose (CMC) 101 % of control and 105 % of control | [2] 100 % of control and 102 % of control | dose: 200.0 mg/kg/injection, schedule: Q04DX002 (ip), vehicle: carboxymethylcellulose (CMC) 96 % of control and 90 % of control | dose: 200.0 mg/kg/injection, schedule: Q04DX003 (ip), vehicle: carboxymethylcellulose (CMC) 92 % of control and 99 % of control | [3] 97 % of control and 105 % of control | dose: 400.0 mg/kg/injection, schedule: Q04DX002 (ip), vehicle: carboxymethylcellulose (CMC) 96 % of control and 90 % of control | dose: 400.0 mg/kg/injection, schedule: Q04DX003 (ip), vehicle: carboxymethylcellulose (CMC) 92 % of control

S=C(NP(=S)(NC(=S)OCCN1CC1)NC(=S)OCCN1CC1)OCCN1CC1
inactive: [1] 93 % of control | [2] 96 % of control

CCOC(=O)c1ccc(OC)nc1
inactive: [4] 104 % of control | [5] 102 % of control | [6] 98 % of control

CC(Br)C(=O)Nc1ccccc1 (stereo unspecified)
inactive: [7] 93 % of control | dose: 100.0 mg/kg/injection, schedule: Q04DX003 (ip), vehicle: saline with Tween-80 101 % of control | [8] 103 % of control | dose: 200.0 mg/kg/injection, schedule: Q04DX003 (ip), vehicle: saline with Tween-80 95 % of control | dose: 400.0 mg/kg/injection, schedule: Q01DX009 (ip), vehicle: saline with Tween-80 90 % of control | dose: 400.0 mg/kg/injection, schedule: Q04DX003 (ip), vehicle: saline with Tween-80 95 % of control

Cc1cccc(NC(=O)NCC(=O)N/N=C/c2cccc([N+](=O)[O-])c2)n1
inactive: dose: 50.0 mg/kg/injection, schedule: Q01DX009 (ip), vehicle: saline with Tween-80 93 % of control | [7] 90 % of control | [8] 88 % of control

O=C(Nc1ccccc1)P(=O)(O)c1ccccc1
inactive: dose: 62.5 mg/kg/injection, schedule: Q01DX001 (ip), vehicle: Klucel (hydroxypropylcellulose) (HPC) 102 % of control | dose: 125.0 mg/kg/injection, schedule: Q01DX001 (ip), vehicle: Klucel (hydroxypropylcellulose) (HPC) 102 % of control | dose: 250.0 mg/kg/injection, schedule: Q01DX001 (ip), vehicle: Klucel (hydroxypropylcellulose) (HPC) 92 % of control

N/C(=N\O)c1cccc(/C(N)=N/O)c1
inactive: dose: 100.0 mg/kg/injection, schedule: Q01DX001 (ip), vehicle: saline 103 % of control

OCCC#CCCCO
inactive: [4] 93 % of control | [5] 92 % of control | [6] 88 % of control

CC(=O)OCCC#N
inactive: dose: 50.0 mg/kg/injection, schedule: Q01DX001 (ip), vehicle: carboxymethylcellulose (CMC) 95 % of control | [1] 95 % of control | [2] 106 % of control | [3] 95 % of control
